Where “and” joins values, the source holds several entries; their conditions need not be identical. Equal values may be shown once. Entries after “also recorded” stand apart in the source; their conditions may differ. Read-outs that look alike come from different tables or passages of the source.
Columns and labels:
clinical = settings: both, human, in vivo, AUC0–12.5h, Observed
[1] = Apparent permeability, apical to basolateral, Caco-2 cell monolayers; type: in vitro ADME; settings: human
[2] = Time-dependent inhibition of midazolam 1’-hydroxylation in HIMs; settings: microsomal incubation mixture, 37 °C, aqueous buffer, kinetic from dmso stock
CYP3A [3] = assay: as above; settings: HIMs
CYP3A [4] = settings: cited from earlier work
[5] = Dissolution of goldenseal capsules in FaSSIF; type: physicochemical; settings: two goldenseal capsules in 250 ml FaSSIF, within 20 minutes
CYP3A [6] = assay: IC50 shift experiment, midazolam 1’-hydroxylation in human intestinal microsomes
[7] = both, human, in vivo
[8] = Clinical pharmacokinetic study, plasma and urine, noncompartmental analysis; settings: for tmax: median [range]
CYP3A [9] = settings: HLMs, 2020, cited from earlier work
CYP3A [10] = assay: Allosterism of midazolam hydroxylation in HIMs by berberine; settings: for effect on 1’-hydroxymidazolam formation: reversible design
[11] = Baseline: oral midazolam 2.5 mg alone; median [range]; ref Nguyen et al., 2021; cited from earlier work
[12] = 6-hour blood collection, ref Gurley et al., 2008
[13] = Baseline: oral midazolam 2.5 mg alone, geometric mean [90% CI]

Question: For `COc1ccc2cc3[n+](cc2c1OC)CCc1cc2c(cc1-3)OCO2` [berberine], which AUC(0-t) (clinical) is on record?
Answer: 4.58 nM·h

Question: What about the Papp at 10 μM [1] of the same compound?
Answer: 1.8 nm/s

Question: And the solubility [2]?
Answer: ≤ 500 µM

Question: What about the “inhibition of midazolam 1’-hydroxylation (in words)” value (CYP3A [3]) of the same compound?
Answer: concentration-dependent and time-dependent inhibition

Question: What about the kinact/KI (CYP3A [3]) of the same compound?
Answer: 4.07 M⁻¹ s⁻¹ and ~4 M⁻¹ s⁻¹

Question: And the KI (CYP3A [3]; time-dependent inhibition of midazolam 1’-hydroxylation)?
Answer: > 250 µM and 250 µM

Question: And the kinact (CYP3A [3]; human, human intestinal microsomes, probe midazolam (40 μM), 1'-hydroxylation, kinact, time-dependent inhibition of midazolam 1’-hydroxylation)?
Answer: ~0.001 s⁻¹

Question: And the “increase in midazolam AUC” value (CYP3A [4]; berberine 300 mg thrice daily × 14 days, ref Guo et al., 2012)?
Answer: 40%

Question: And the total content dissolved [5]?
Answer: More than 80%

Question: And the “leftward shift in IC50 after preincubation with NADPH” value (CYP3A [6]; HIMs)?
Answer: not observed

Question: What about the “IC50, midazolam 1’-hydroxylation” value (CYP3A [6]; HIMs 0.05 mg/ml, 30 min preincubation in absence of NADPH, 4 μM midazolam) of the same compound?
Answer: apparent activation; also recorded: unattainable

Question: What about the “AUC0–12.5h, Observed” value [7] of the same compound?
Answer: 7.81 [6.17–9.89] nM*h

Question: And the AUC(0-inf) ([8]; both, human, plasma, oral)?
Answer: 46.7 nM·h

Question: And the “TDI of CYP3A activity (midazolam 1’-hydroxylation), in words” value (CYP3A [9]; ref Chatterjee and Franklin, 2003, McDonald et al.)?
Answer: demonstrated TDI

Question: What about the “IC50 (reversible inhibition)” value (CYP3A [9]; ref McDonald et al.) of the same compound?
Answer: unattainable

Question: What about the kinact/KI (CYP3A [9]; ref McDonald et al.) of the same compound?
Answer: 21.7 M⁻¹ s⁻¹

Question: What about the “effect on midazolam 4-hydroxylation” value (CYP3A [10]; berberine 5–100 μM) of the same compound?
Answer: inhibited

Question: What about the “effect on 1’-hydroxymidazolam/4-hydroxymidazolam ratio” value (CYP3A [10]; particularly at midazolam ≤5 μM) of the same compound?
Answer: concentration-dependent increase

Question: And the “effect on 1’-hydroxymidazolam formation” value (CYP3A [10]; midazolam ≤5 μM)?
Answer: activated

Question: What about the “effect on 1’-hydroxymidazolam formation” value (CYP3A [10]; midazolam ≥50 μM) of the same compound?
Answer: inhibited

Question: Which results are given for `Cc1ncc2n1-c1ccc(Cl)cc1C(c1ccccc1F)=NC2` [Midazolam]?
Answer: midazolam half-life at baseline (CYP3A [4]; [12]): 2.0 h; midazolam half-life in the presence of goldenseal (CYP3A [4]; [12]): 3.1 h; tmax [11]: 0.67 [0.33–1.00] h; CL renal ([8]; both, human, plasma and urine, po): 1.08 mL/min

Question: Which “AUC0–12h” value [8, 13] does the source give for `OCc1ncc2n1-c1ccc(Cl)cc1C(c1ccccc1F)=NC2` [1’-Hydroxymidazolam, 1’-hydroxymidazolam] here?
Answer: 29.0 [24.4–34.4] nM*h

Question: What about the AUCinf [8, 13] of the same compound?
Answer: 33.1 [27.9–39.0] nM*h

Question: And the CLR [8, 13]?
Answer: 0.17 [0.14–0.20] n = 15 l/h

Question: What about the Cmax [8, 13] of the same compound?
Answer: 0.0123 µM

Question: What about the “MP ratio (metabolite AUC0–12h to midazolam AUC0–12h)” value [8, 13] of the same compound?
Answer: 0.47 [0.40–0.54]

Question: And the t1/2 [8, 13]?
Answer: 6.25 [5.27–7.40] h

Question: And the tmax ([8]; Baseline: oral midazolam 2.5 mg alone)?
Answer: 0.67 [0.33–1.00] h

Question: And the tmax ([8]; Chronic exposure: goldenseal 1 g thrice daily for 6 days, midazolam 2.5 mg oral)?
Answer: 0.67 [0.33–1.50] h

Question: What does the source list for `Cc1ncc2n1-c1ccc(Cl)cc1C(c1ccccc1F)=NC2O` (centres unmarked) [4-Hydroxymidazolam, 4-hydroxymidazolam]?
Answer: CLR [8, 13]: Concentrations of metabolites in urine were below the detectable limit; MP ratio (metabolite AUC0–12h to midazolam AUC0–12h) [8, 13]: 0.045 [0.039–0.051]; AUC(0-t) ([8]; both, human, plasma, po, 2.5 mg, AUC0–12h, Baseline: oral midazolam 2.5 mg alone, geometric mean [90% CI]): 2.78 nM·h; half-life ([8]; both, human, plasma, po, 2.5 mg, t1/2, Baseline: oral midazolam 2.5 mg alone, geometric mean [90% CI]): 1.68 h; tmax ([8]; both, human, plasma, po, 2.5 mg, tmax, Baseline: oral midazolam 2.5 mg alone): 1 h; tmax ([8]; both, human, plasma, po, tmax, Chronic exposure: goldenseal 1 g thrice daily for 6 days, midazolam 2.5 mg oral): 1 h
